# What was measured:
# [1] = system: Trichostrongylus colubriformis; assay: In-vivo test in Mongolian gerbils using peroral application; conditions: dose 0.32 mg/kg, T. colubriformis
# Procedure: (§1) 2. In-vivo Test on Trichostrongylus colubriformis and Haemonchus contortus in Mongolian Gerbils (Meriones unquiculatus) Using Peroral Application Six to eight week old Mongolian gerbils are infected through a stomach tube with ca. 2000 third instar larvae each of T. colubriformis and H contortus. 6 days after infection, the gerbils are treated by peroral application with the test compounds, dissolved in a mixture of 2 pasts DMSO and 1 part polyethylene glycol (PEG 400). On day 9 (3 days after treatment), when most of the H. cantortus that are still present are late 4th instar larvae and most of the T. colubriformis are immature adults, the gerbils are killed in order to count the worms. The efficacy is calculated as the % reduction of the number of worms in each gerbil, compared with the geometric average of number of worms from 6 infected and untreated gerbils.
# Haemonchus contortus = assay: as above; conditions: dose 0.32 mg/kg, H. contortus
# Procedure: as §1
# [2] = system: Teladorsagia circumcincta; assay: In-vivo test in sheep using peroral application; conditions: oral, worm burden in abomasum 19 to 21 days after treatment
# Procedure: 3. In-Vivo Test on Teladorsagia circumcincta in Sheep Using Peroral Application Sheep are infected with 6,000 to 8,000 third stage larvae of Teladorsagia circumcincta (Tca) 7 to 5 days prior to treatment Animals in the treated groups are treated orally at a dose of 2 or 5 mg per kg bodyweight. […] The animals are euthanized 19 to 21 days after treatment and the worm burden in the abomasum is examined. Efficacy assessment of the compounds is determined by comparison of the treated and untreated groups worm counts, calculated using Abbott's formula as follows: % efficacy=100×(C−T)/C, where C is the geometric mean worm count of each species for the untreated control group and T, the geometric mean worm count of each species for the treated group.
# Ostertagia ostertagi = assay: In-vivo test in cattle using peroral application; conditions: oral, worm burden in abomasum 23 to 28 days after treatment
# Procedure: 4. In-vivo Test on Ostertagia ostertagi in Cattle Using Peroral Application Cattle are infected with 7,000 to 10,000 third stage larvae of Ostertagia ostertagi (Oo) 7 to 5 days prior to treatment. […] The animals are euthanized 23 to 28 days after treatment and the worm burden in the abomasum is examined. Efficacy assessment of the compounds is determined by comparison of the treated and untreated groups worm counts, calculated using Abbott's formula as follows: % efficacy=100×(C−T)/C; where C is the geometric mean worm count of each species for the untreated control group and T, the geometric mean worm count of each species for the treated group.
SMILES,efficacy (% reduction of the number of worms) [1] [%],efficacy (% reduction of the number of worms) (Haemonchus contortus) [%],Efficacy against Tca [%] ([2]; dose 2 mg/kg),Efficacy against Oo [%] (Ostertagia ostertagi; dose 5 mg/kg),melting point [°C],Efficacy against Tca [%] ([2]; dose 5 mg/kg),Efficacy against Oo [%] (Ostertagia ostertagi; dose 20 mg/kg)
"CC(C#N)(COc1cc(C#N)ccc1Oc1ccc(OC(F)(F)F)cc1Cl)NC(=O)c1ccc(OC(F)(F)F)cc1 (racemic) [Compound No. 1.1, N-[1-cyano-1-methyl-2-(5-cyano-2-{2-chloro-4-trifluoromethoxy-phenoxy}-phenoxy)-ethyl]-4-trifluoromethoxybenzamide]",100,100,99,100,–,–,–
"CC(C#N)(COc1cc(C#N)ccc1Oc1ccc(OC(F)(F)F)cc1Cl)NC(=O)c1ccc(SC(F)(F)F)cc1 (racemic) [Compound No. 1.7, N-[1-cyano-1-methyl-2-(5-cyano-2-{2-chloro-4-trifluoromethoxy-phenoxy}-phenoxy)-ethyl]-4-trifluoromethylsulfanylbenzamide]",100,100,99,100,136 to 137,–,–
"CC(C#N)(COc1cc(C#N)ccc1Oc1ccc(OC(F)(F)F)cc1Cl)NC(=O)c1ccc(S(=O)(=O)C(F)(F)F)cc1 (racemic) [Compound No. 1.12, N-[1-cyano-1-methyl-2-(5-cyano-2-{2-chloro-4-trifluoromethoxy-phenoxy}-phenoxy)-ethyl]-4-trifluoromethylsulfonylbenzamide]",98,98,99,100,128 to 130,–,–
"C[C@@](C#N)(COc1cc(C#N)ccc1Oc1ccc(OC(F)(F)F)cc1Cl)NC(=O)c1ccc(OC(F)(F)F)cc1 [Compound No. 1.3, N-[(1R)-1-cyano-2-(5-cyano-2-{2-chloro-4-trifluoromethoxyphenoxy}-phenoxy)-1-methylethyl]-4-trifluoromehoxy-benzamide]",100,100,–,–,–,–,–
CC(C#N)(COc1cc(Cl)ccc1Oc1ccc(Cl)cc1Cl)NC(=O)c1ccc(OC(F)(F)F)cc1 (stereo not shown) [reference compound],–,–,–,–,–,15,–
CC(C#N)(COc1cc(C#N)ccc1Oc1ccc(Cl)cc1Cl)NC(=O)c1ccc(OC(F)(F)F)cc1 (stereo not shown) [reference compound],–,–,–,–,–,0,55

# — patent US8759564B2, “Amidoacetonitrile compounds having pesticidal activity” (Novartis AG, priority 2009, dated 2014)
